Test results from a melting point compilation (Tetko et al.; mined from patent text by program, amines drawn as free bases though some values may be those of a salt).

SMILES | melting point
Cc1cc(Nc2cncc(Nc3cccc(C#N)c3)n2)n[nH]1 | 260 to 262 °C
COc1cc(C)c2c(c1)C(=O)CCC2 | 55 °C
Cn1c2cc(Cl)ccc2c2c(=O)[nH]c(-c3ccncc3)nc21 | > 300 °C
O=C1c2cc(Cl)ccc2CN2CCC(=NO)C12 (stereo not given) | 130 to 136 °C
Cc1ccc2c3ccccc3n(CC(O)CN3CCNCC3c3ccc(Cl)c(Cl)c3)c2c1 (stereo not given) | 140 °C
Ic1sc2ccccc2c1Oc1ccc(OCc2ccccc2)cc1 | 87 to 92 °C
CC1(C)SC2C(NC(=O)Cc3ccccc3)C(=O)N2C1c1nnn[nH]1 (stereo not given) | 168 to 170 °C
Cc1oncc1C(=O)Nc1ccc(N)cc1 | 123 to 128 °C
COC(=O)c1ccc(C)cc1N(C)S(C)(=O)=O | 100 to 103 °C
COc1nc(C)c(C)nc1NC(=O)N1CCN(c2cc(F)cc(F)c2)CC1 | 153 to 154 °C
Cc1noc(-c2cn(-c3cccc(-c4ccccc4)c3)cn2)n1 | 163 to 165 °C
CCCCCc1ccc(OCC(O)CCCCCCC(=O)O)cc1 (stereo not given) | 105 to 106 °C
CCCn1c(COCC)nc2c(N)nc3cc(OCCN4CCOCC4)ccc3c21 | 191 to 192 °C
NCCc1cccc(N2C(=O)N(c3cc(Cl)ccc3Cl)Cc3cnc(Nc4ccccc4)nc32)c1 | 120 to 123 °C
CSc1ccc2c(O)c(CS(C)(=O)=O)cnc2c1 | 290 to 292 °C
CCCc1nn(C)c2c(=O)[nH]c(-c3cc(C(=O)N4CCN(C)CC4)ccc3OCC)nc12 | 196 to 197 °C
Clc1ccc(COC(CNc2ccc(Cl)c(Cl)c2)Cn2ccnc2)c(Cl)c1 (stereo not given) | 116 to 117 °C
Cc1c(Cc2cccnc2)oc2ccc(C(=O)O)cc12 | 219 to 221 °C
Cc1ccccc1C(=O)N(C)c1ccc(C(=O)O)cc1 | 187 to 190 °C
Cn1c(COc2ccc(CC3SC(=O)NC3=O)cc2)nc2ccc(Oc3ccc(NC(=O)C4CCCCC4)cc3)cc21 (stereo not given) | 182 to 184 °C

SMILES | melting point
CCOC(=O)C1=C(C)NC(C)=C(C(=O)OCC)C1c1csc2ccc(Br)cc12 | 68 to 70 °C
C/C(=C\CC1OC(=O)NC1=O)c1cccc(OCCc2nc(-c3ccccc3)oc2C)c1 (stereo not given) | 100 to 101 °C
Cc1c(-c2ccccc2)sc2c(Cl)c(Cl)c(OCC(=O)O)cc12 | 232 to 233 °C
COc1ccc(-c2nn(CC(C)C)c(=O)c(CO)c2-c2ccc(OC)cc2)cc1 | 121 to 122 °C
O=C1C(=O)c2ccccc2C2=C1SCC1(CCN(C(=O)c3cc4ccccc4s3)CC1)O2 | 110 to 112 °C
CCc1ccc2nc(Cl)nc(Cl)c2c1 | 80 to 83 °C
CCOCc1nc2c(N)nc3c(c2n1CCCCS(C)(=O)=O)CCCC3 | 170 to 171 °C
CC(C)N1Cc2cc(N)ccc2N(CCCl)S1(=O)=O | 154 to 156 °C
CC(C)(C)NC(=S)Nc1cc(Br)cc(Br)c1 | 172 to 174 °C
COC(=O)c1nc(-c2ccc(Cl)c(OC)c2F)nc(N)c1C(F)CBr (stereo not given) | 144 to 146 °C
CCCCc1nn(-c2ccc(C(F)(F)F)cn2)cc1CCCOc1cc(CC(=O)O)ccc1OCC | 105 to 106 °C
Cc1nccn1-c1nc(-c2ccc(Cl)c(Cl)c2)c(CCCO)o1 | 140 to 141 °C
Brc1ccccc1P(c1cccc2ccccc12)c1cccc2ccccc12 | 206 to 207 °C
CCOC(=O)CCCN(C(=O)CCCN(C(=O)c1ccc(Cl)cc1)c1c(C)cccc1C)c1c(C)cccc1C | 95 to 97 °C
N#CC(C#N)=C1N(CCCN2CCCCC2)CCN1C1CCN(Cc2ccccc2)CC1 | 156 to 158 °C
CC(=O)Oc1cccc2c1NC(O)C1CCCN1C2=O (stereo not given) | 143 to 145 °C
CCCN(CCC)C(=O)Cc1ccc(OCc2ccccc2)c([N+](=O)[O-])c1 | 67 to 68 °C
CC(=O)OCOC(=O)Oc1c(Br)cc(C#N)cc1Br | 84 to 86 °C
O=C(Cn1c(-c2ccc(Cl)cc2)nc2cccnc21)c1ccccc1 | 211 to 212 °C
CC(C)C1CNCc2cccc3[nH]c(=O)n1c23 (stereo not given) | 167 °C
